What is called EC50 is the concentration needed to bring the measured effect to its halfway point. Low values mean a more potent agent, high ones a less potent agent.

Assay [1] concerns the target T1, RORγ receptor (B-RORγ LBD / Bioin-SRC1) (Homo sapiens, UniProt P51449).
T1 construct: 40 nM B-RORγ LBD solution
T1 sequence (P51449 269-508 limits assumed): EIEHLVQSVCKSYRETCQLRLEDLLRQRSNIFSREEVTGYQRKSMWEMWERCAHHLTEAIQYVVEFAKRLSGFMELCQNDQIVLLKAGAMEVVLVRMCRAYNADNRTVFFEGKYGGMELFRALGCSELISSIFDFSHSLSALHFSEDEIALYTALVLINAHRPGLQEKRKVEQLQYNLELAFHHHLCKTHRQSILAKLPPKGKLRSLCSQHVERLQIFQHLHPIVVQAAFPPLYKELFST
T1 sequence (Q15788 676-700 partner limits assumed): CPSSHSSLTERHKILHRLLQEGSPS
Briefly: Determination of agonistic activities on RORγ receptors in vitro (dual FRET). The format is biochemical. The conditions noted are these: average of at least two independent experiments. The protocol: Determination of Agonistic Activities of Compounds on RORγ Receptors In Vitro The agonistic activities of compounds described herein on RORγ receptor were determined by dual fluorescence resonance energy transfer (dual FRET) experiments. The agonistic activity was expressed by half maximum effect concentration (EC50).
1) Preparation of RORγ Assay Buffer
100 mL of buffer solution was well mixed with […] DTT for use.
2) Preparation of Solutions of Compounds
3) Preparation of protein mixtures a) 40 nM B-RORγ LBD solution was mixed well with 20 nM SA-APC solution and incubated for 15 minutes at room temperature. Then the resulting mixture was further mixed well with 400 nM Biotin and incubated for another 10 minutes at room temperature. […]
b) 40 nM Bioin-SRC1 solution was mixed well with 10 nM SA-eu solution and was incubated for 15 minutes at room temperature. Then the resulting mixture was further mixed well with 200 nM Biotin and was incubated for another 10 minutes at room temperature. […]
d) A mixture (25 μL) of B-RORγ LBD/SA-APC and Bioin-SRC1/SA-eu together with a test compound was added to one of the wells of a 384-well plate, and then the plate was centrifuged for one minute at 1000 rpm, and incubated at room temperature for one hour. The data were read on an Envision microplate detector and EC50 values were calculated.

Assay [2] relates to Mouse lymphoma EL4 cells transfected with RORγt plasmid. Briefly: Determination of the activation rate on mouse lymphoma EL4 (IL-17 generation). Format: cell-based. The conditions noted are these: compound at 2 μM, 24 hours, PMA/ionomycin stimulation 4 hours, flow cytometry, read-out: +act % (activation of IL-17 generated by EL4 cells). How it is done: Determination of the Activation Rate on Mouse Lymphoma EL4
Mouse lymphoma EL4 cells transfected with RORγt plasmid were cultured at 37° C. under an atmosphere with 5% CO2, with a test compound added simultaneously. After 24 hours, the generation efficiency of IL-17A was analyzed. Before collection of cells, PMA at 50 ng/mL and ionomycin at 500 ng/mL were added for stimulation for 4 hours. The proportion of IL-17 was detected by intracellular staining and flow cytometry. […] The activation rate of IL-17 generated by EL4 cells for the compound was measured at a concentration of 2 μM.

The molecule `CC(C)Cc1ccc(-c2c(Cl)cc(NC(=O)CC3CCCCC3)cc2Cl)cc1C#N` [Example 5, (2-Cyclohexyl-N-(2,6-dichloro-3′-cyano-4′-isobutyl-[1,1′-biphenyl]-4-yl)acetamide)] came in with a 50% effective concentration (EC50) in assay [1] of 10 to 50 nM. Further, in assay [2], the activation at 2 µM was < 20%.
In the same order, the values of `CC(C)Cc1ccc(-c2c(Cl)cc(NC(=O)Cc3ccccn3)cc2Cl)cc1C#N` [Example 13, N-(2,6-Dichloro-3′-cyano-4′-isobutyl-[1,1′-biphenyl]-4-yl)-2-(pyridin-2-yl)acetamide] are 10 to 50 nM and < 20%.
With `CC(C)Cc1ccc(-c2c(Cl)cc(NC(=O)Cc3ccc(C(=O)O)cc3)cc2Cl)cc1C#N` [Example 24, 4-(2-((2,6-Dichloro-3′-cyano-4′-isobutyl-[1,1′-biphenyl]-4-yl)amino)-2-oxoethyl)benzoic acid], in assay [1], the EC50 is < 10 nM. Further, in assay [2], the activation at 2 µM is < 20%.
`CCS(=O)(=O)c1ccc(CCNc2cc(Cl)c(-c3ccc(CC(C)C)c(C#N)c3)c(Cl)c2)cc1` [Example 60, 2′,6′-Dichloro-4′-((4-(ethylsulfonyl)phenethyl)amino)-4-isobutyl-[1,1′-biphenyl]-3-carbonitrile] came in with a concentration for a half-maximal effect (EC50) in assay [1] of 10 to 50 nM. The activation at 2 µM in assay [2] is 20 to 50%.
In the case of `CN(C)Cc1ccc(-c2c(Cl)cc(NC(=O)Cc3ccc(S(C)(=O)=O)cc3)cc2Cl)cc1C#N` [Example 34, N-(2,6-Dichloro-3′-cyano-4′-((dimethylamino)methyl)-[1,1′-biphenyl]-4-yl)-2-(4-(methylsulfonyl)phenyl)acetamide], the EC50 in assay [1] lay within 10 to 50 nM. Further, the activation at 2 µM in assay [2] was > 50%.
Molecule `CCS(=O)(=O)c1ccc(CNC(=O)Nc2cc(Cl)c(-c3ccc(CN(C)C)c(C#N)c3)c(Cl)c2)cc1` [Example 58, 1-(2,6-Dichloro-3′-cyano-4′-((dimethylamino)methyl)-[1,1′-biphenyl]-4-yl)-3-(4-(ethylsulfonyl)benzyl)urea] had an EC50 in assay [1] of 10 to 50 nM. For the same molecule, the activation at 2 µM in assay [2] was 20 to 50%.
As for `CC(C)Cc1ccc(-c2c(Cl)cc(NC(=O)Cc3ccccc3C#N)cc2Cl)cc1C#N` [Example 11, 2-(2-Cyanophenyl)-N-(2,6-dichloro-3′-cyano-4′-isobutyl-[1,1′-biphenyl]-4-yl)acetamide], in assay [1], the EC50 is 10 to 50 nM. Also, in assay [2], the activation at 2 µM is < 20%.
`CC(C)Cc1ccc(-c2c(Cl)cc(NC(=O)Cc3ccn(C)n3)cc2Cl)cc1C#N` [Example 9A, N-(2,6-Dichloro-3′-cyano-4′-isobutyl-[1,1′-biphenyl]-4-yl)-2-(1-methyl-1H-pyrazol-3-yl)acetamide] displayed an EC50 in assay [1] of 10 to 50 nM. Further, the activation at 2 µM in assay [2] was < 20%.
In the case of `CC(C)Cc1ccc(-c2c(Cl)cc(NC(=O)CC3CCOCC3)cc2Cl)cc1C#N` [Example 6, N-(2,6-Dichloro-3′-cyano-4′-isobutyl-[1,1′-biphenyl]-4-yl)-2-(tetrahydro-2H-pyran-4-yl) acetamide], in assay [1], the EC50 is 10 to 50 nM. In addition, the activation at 2 µM in assay [2] was 20 to 50%.
Regarding `CC(C)Cc1ccc(-c2c(Cl)cc(NC(=O)C3CCCCC3)cc2Cl)cc1C#N` [Example 2, N-(2,6-Dichloro-3′-cyano-4′-isobutyl-[1,1′-biphenyl]-4-yl)cyclohexanecarboxamide], the EC50 in assay [1] lay in the range of 10 to 50 nM. For the same molecule, the activation at 2 µM in assay [2] was 20 to 50%.
In assay [1], `CCN(CC)Cc1ccc(-c2c(Cl)cc(NC(=O)Cc3ccc(S(=O)(=O)CC)cc3)cc2Cl)cc1C#N` [Example 37, N-(2,6-Dichloro-3′-cyano-4′-((diethylamino)methyl)-[1,1′-biphenyl]-4-yl)-2-(4-(ethylsulfonyl)phenyl)acetamide] had an EC50 of 10 to 50 nM. In assay [2], the activation at 2 µM is 20 to 50%.
Take `CCS(=O)(=O)c1ccc(CNC(=O)Nc2cc(Cl)c(-c3ccc(CC(C)C)c(C#N)c3)c(Cl)c2)cc1` [Example 53, 1-(2,6-Dichloro-3′-cyano-4′-isobutyl-[1,1′-biphenyl]-4-yl)-3-(4-(ethylsulfonyl)benzyl)urea]: in assay [2], the activation at 2 µM fell in the range of 20 to 50%.
Consider `CCS(=O)(=O)c1ccc(CC(=O)Nc2cc(Cl)c(-c3ccc(C=C(C)C)c(C#N)c3)c(Cl)c2)cc1` [Example 40, N-(2,6-Dichloro-3′-cyano-4′-(2-methylprop-1-en-1-yl)-[1,1′-biphenyl]-4-yl)-2-(4-(ethylsulfonyl)phenyl)acetamide], for which, in assay [2], the activation at 2 µM is > 50%.
Turning to `CCS(=O)(=O)c1ccc(CNC(=O)c2cc(Cl)c(-c3ccc(CC(C)C)c(C#N)c3)c(Cl)c2)nc1` [Example 49, 2,6-Dichloro-3′-cyano-N-((5-(ethylsulfonyl)pyridin-2-yl)methyl)-4′-isobutyl-[1,1′-biphenyl]-4-carboxamide], the EC50 in assay [1] lay in the range of 50 to 100 nM. Moreover, the activation at 2 µM in assay [2] is < 20%.
On to `CCS(=O)(=O)c1ccc(CCNc2cc(Cl)c(-c3ccc(CN(C)C)c(C#N)c3)c(Cl)c2)cc1` [Example 62, 2′,6′-Dichloro-4-((dimethylamino)methyl)-4′((4-(ethylsulfonyl)phenethyl)amino)-[1,1′-biphenyl]-3-carbonitrile], for which the EC50 in assay [1] was < 10 nM. For the same molecule, in assay [2], the activation at 2 µM fell in the range of 20 to 50%.
In the case of `CCS(=O)(=O)c1ccc(CNC(=O)c2cc(Cl)c(-c3ccc(CC(C)C)c(C#N)c3)c(Cl)c2)cc1` [Example 47], the activation at 2 µM in assay [2] is < 20%.
In assay [1], `CCS(=O)(=O)c1ccc(CNC(=O)Nc2cc(Cl)c(-c3ccc(CC(C)C)c(C#N)c3)c(Cl)c2)nc1` [Example 55, 1-(2,6-Dichloro-3′-cyano-4′-isobutyl-[1,1′-biphenyl]-4-yl)-3-((5-(ethylsulfonyl)pyridin-2-yl)methyl)urea] returned a 50% effective concentration (EC50) of 10 to 50 nM. In addition, the activation at 2 µM in assay [2] is 20 to 50%.
The molecule `CCS(=O)(=O)c1ccc(CC(=O)Nc2cc(Cl)c(-c3ccc(CN4CCCC4)c(C#N)c3)c(Cl)c2)cc1` [Example 39, N-(2,6-Dichloro-3′-cyano-4′-(pyrrolidin-1-ylmethyl)-[1,1′-biphenyl]-4-yl)-2-(4-(ethylsulfonyl)phenyl)acetamide] displayed an EC50 in assay [1] of 10 to 50 nM.
Turning to `CCS(=O)(=O)c1ccc(CC(=O)Nc2cc(Cl)c(-c3ccc(CC4CCCC4)c(C#N)c3)c(Cl)c2)cc1` [Example 45, N-(2,6-Dichloro-3′-cyano-4′-(cyclopentylmethyl)-[1,1′-biphenyl]-4-yl)-2-(4-(ethylsulfonyl)phenyl)acetamide], in assay [1], the EC50 is 10 to 50 nM.
For `CCS(=O)(=O)c1ccc(CC(=O)Nc2cc(Cl)c(-c3ccc(CC(C)C)c(F)c3)c(Cl)c2)cc1` [Example 27, N-(2,6-Dichloro-3′-fluoro-4′-isobutyl-[1,1′-biphenyl]-4-yl)-2-(4-(ethylsulfonyl)phenyl)acetamide], in assay [1], the EC50 lay in the range of 10 to 50 nM.
Turning to `CCS(=O)(=O)c1ccc(CC(=O)Nc2cc(Cl)c(-c3ccc(CN(C)C)c(C#N)c3)c(Cl)c2)cc1` [Example 35, N-(2,6-Dichloro-3′-cyano-4′-((dimethylamino)methyl)-[1,1′-biphenyl]-4-yl)-2-(4-(ethylsulfonyl)phenyl)acetamide], the activation at 2 µM in assay [2] is > 50%.
With `CCS(=O)(=O)c1ccc(CC(=O)Nc2cc(Cl)c(-c3ccc(CN4CCC4)c(C#N)c3)c(Cl)c2)cc1` [Example 38, N-(4′-(Azetidin-1-ylmethyl)-2,6-dichloro-3′-cyano-[1,1′-biphenyl]-4-yl)-2-(4-(ethylsulfonyl)phenyl)acetamide], the 50% effective concentration (EC50) in assay [1] was > 1000 nM.
Turning to `CC(C)Cc1ccc(-c2c(Cl)cc(C(=O)NCc3ccc(S(C)(=O)=O)cc3)cc2Cl)cc1C#N` [Example 48, 2,6-Dichloro-3′-cyano-4′-isobutyl-N-(4-(methylsulfonyl)benzyl)-[1,1′-biphenyl]-4-carboxamide], the EC50 in assay [1] is 50 to 100 nM.
Same read-out and setting: under `CC(C)Cc1ccc(-c2c(Cl)cc(NC(=O)Cc3ccc(CC(=O)O)cc3)cc2Cl)cc1C#N` [Example 25, 2-(4-(2-((2,6-Dichloro-3′-cyano-4′-isobutyl-[1,1′-biphenyl]-4-yl)amino)-2-oxoethyl)phenyl)acetic acid] stands < 10 nM; under `CCS(=O)(=O)c1ccc(CNC(=O)c2cc(Cl)c(-c3ccc(CN(C)C)c(C#N)c3)c(Cl)c2)cc1` [Example 51, 2,6-Dichloro-3′-cyano-4′-((dimethylamino)methyl)-N-(4-(ethylsulfonyl)benzyl)-[1,1′-biphenyl]-4-carboxamide], 100 to 500 nM; under `CC(C)Cc1ccc(-c2c(Cl)cc(NC(=O)Cc3ccnn3C)cc2Cl)cc1C#N` [Example 9B, N-(2,6-dichloro-3′-cyano-4′-isobutyl-[1,1′-biphenyl]-4-yl)-2-(1-methyl-1H-pyrazol-5-yl)acetamide], 10 to 50 nM.

Source of the values: US10844017B2, “Biaryl compound, preparation method and use thereof” (FUDAN UNIVERSITY, priority 2017, dated 2020).
